Results on 19 compounds are retold here after ChEMBL document CHEMBL1255197, “Surface plasmon resonance biosensor based fragment screening using acetylcholine binding protein identifies ligand efficiency hot spots (LE hot spots) by deconstruction of nicotinic acetylcholine receptor α7 ligands” (J Med Chem, 2010).

In experiment [1] the target is T1, Acetylcholine-binding protein (Lymnaea stagnalis, UniProt P58154).
Description: Binding affinity to Lymnaea stagnalis His6-AChBP expressed in Bac-to-Bac baculovirus expression system by surface plasmon resonance biosensor assay
The target of experiment [2] is T1, Acetylcholine-binding protein. This is another data set of the same source.
Description: Displacement of [3H]epibatidine from Lymnaea stagnalis His6-AChBP expressed in Bac-to-Bac baculovirus expression system
Experiment [3] addresses Neuronal acetylcholine receptor subunit alpha-7 (Homo sapiens, UniProt P36544). The experiment in a line: biochemical.
Description: Displacement of [3H]-MLA from human alpha7 nAChR expressed in human SH-SY5Y cells

Neuronal acetylcholine receptor subunit alpha-7, sequence (P36544 whole entry): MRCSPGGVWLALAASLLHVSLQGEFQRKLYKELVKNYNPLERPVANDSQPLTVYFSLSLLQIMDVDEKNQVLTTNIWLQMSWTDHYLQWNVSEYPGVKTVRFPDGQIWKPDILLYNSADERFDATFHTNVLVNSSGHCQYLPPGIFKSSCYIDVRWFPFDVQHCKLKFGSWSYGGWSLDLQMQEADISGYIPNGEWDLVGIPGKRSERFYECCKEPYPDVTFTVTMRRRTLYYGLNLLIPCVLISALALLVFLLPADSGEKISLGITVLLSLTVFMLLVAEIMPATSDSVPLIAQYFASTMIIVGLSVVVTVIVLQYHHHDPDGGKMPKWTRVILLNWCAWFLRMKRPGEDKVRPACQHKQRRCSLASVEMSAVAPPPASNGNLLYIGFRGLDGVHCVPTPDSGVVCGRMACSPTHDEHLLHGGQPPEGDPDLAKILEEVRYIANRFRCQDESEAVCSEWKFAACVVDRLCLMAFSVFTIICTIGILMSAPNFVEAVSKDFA
T1 sequence (P58154 whole entry): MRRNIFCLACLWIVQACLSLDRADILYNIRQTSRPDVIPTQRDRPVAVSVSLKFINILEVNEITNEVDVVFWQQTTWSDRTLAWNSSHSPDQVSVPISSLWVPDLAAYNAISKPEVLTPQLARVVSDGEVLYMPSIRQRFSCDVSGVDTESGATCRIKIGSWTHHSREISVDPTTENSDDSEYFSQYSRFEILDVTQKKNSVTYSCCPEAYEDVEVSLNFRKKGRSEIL

What is called Kd is a measure of binding affinity in units of concentration. Low values mean a tighter complex, high ones a looser complex. A word on the Ki: it is the dissociation constant of the complex between target and ligand, obtained from inhibition or displacement. Read a low Ki as tighter binding. As for `O=C(Nc1ccccc1)OCCCc1cccnc1`, the Kd in experiment [1] was 741000 nM. For the same compound, the values for the Ki in experiment [2] and in experiment [3] were 282000 nM and 14500 nM, respectively.
The like results for `O=C(Nc1ccc(Br)cc1)OCCCc1cccnc1` were, in that order, 50100 nM, > 10000 nM and 6920 nM.
Turning to `O=C(Nc1ccccc1)O[C@H]1CN2CCC1CC2`, the Kd in experiment [1] is 29500 nM. In experiment [2], this compound had a Ki of 7940 nM.
For `O=C(Nc1ccc(Br)cc1)O[C@H]1CN2CCC1CC2`, in experiment [1], the equilibrium dissociation constant (Kd) was 4470 nM. Also, the results for the inhibitory constant (Ki) in experiment [2] and in experiment [3] were 3020 nM and 38.9 nM, respectively.
The compound `O=C(Nc1ccccc1)N[C@H]1CN2CCC1CC2` gave a Kd in experiment [1] of 18600 nM. The Ki in experiment [2] was 5500 nM; in experiment [3], 110 nM.
Turning to `O=C(Nc1ccc(Br)cc1)N[C@H]1CN2CCC1CC2`, in experiment [1], the Kd is 4900 nM. Further, the inhibitory constant (Ki) is 5130 nM in experiment [2] and 43.7 nM in experiment [3].
The compound `O[C@@H]1C2CCN(CC2)[C@H]1Cc1cccnc1` showed a dissociation constant (Kd) in experiment [1] of 316 nM. For the same compound, the inhibitory constant (Ki) is 251 nM in experiment [2] and 3310 nM in experiment [3].
The like results for `N[C@@H]1C2CCN(CC2)[C@H]1Cc1cccnc1` were, in that order, 550 nM, 468 nM and 2290 nM.
The matching figures for `N[C@H]1CN2CCC1CC2`: 74100 nM, 110000 nM and 6310 nM.
The matching figures for `NCCc1cccnc1`: 148000 nM, 93300 nM and 8510 nM.
On to `O=C(N[C@@H]1C2CCN(CC2)[C@H]1Cc1cccnc1)c1ccccc1`, for which, in experiment [1], binding was characterised by a dissociation constant (Kd) of 219 nM. Moreover, the inhibition constant (Ki) in experiment [2] was 240 nM.
In experiment [1], `O=C(N[C@@H]1C2CCN(CC2)[C@H]1Cc1cccnc1)c1cccs1` showed an equilibrium dissociation constant (Kd) of 240 nM. Besides, the values for the Ki in experiment [2] and in experiment [3] were 148 nM and 43.7 nM, respectively.
Compound `O=C(Nc1ccccc1)O[C@@H]1C2CCN(CC2)[C@H]1Cc1cccnc1` gave a Kd in experiment [1] of 100 nM. Moreover, the Ki is 61.7 nM in experiment [2] and 18.6 nM in experiment [3].
The matching figures for `O=C(Nc1ccccc1)N[C@@H]1C2CCN(CC2)[C@H]1Cc1cccnc1`: 871 nM, 562 nM and 28.8 nM.
The like results for `O=C(Nc1ccc(Br)cc1)N[C@@H]1C2CCN(CC2)[C@H]1Cc1cccnc1` were, in that order, 437 nM, 708 nM and 25.7 nM.
The like results for `O=C(N[C@@H]1C2CCN(CC2)[C@H]1Cc1cccnc1)Oc1ccccc1` were, in that order, 347 nM, 501 nM and 37.2 nM.
With `CN(C)CCc1cccnc1`, binding in experiment [1] was characterised by a dissociation constant (Kd) of 6030 nM. For the same compound, the Ki in experiment [2] and in experiment [3] was 3160 nM in each case.
As for `O=C(N[C@@H]1C2CCN(CC2)[C@H]1Cc1cccnc1)c1cc2ccccc2o1` [BRADANICLINE], in experiment [1], the dissociation constant (Kd) is 20 nM. This compound had an inhibition constant (Ki) in experiment [2] of 14.5 nM.
Consider `O=C(N[C@H]1CN2CCC1CC2)c1ccc(Cl)cc1` [PNU-282987], for which, in experiment [1], binding was characterised by a dissociation constant (Kd) of 3630 nM. In addition, the results for the Ki in experiment [2] and in experiment [3] were 2090 nM and 24.5 nM, respectively.
